Columns and labels:
[1] = target: T1, TbTIM (triosephosphate isomerase from Trypanosoma brucei) (Trypanosoma brucei, UniProt P04789); assay: residual activity after […] h preincubation; alpha-GPDH coupled assay, NADH at […] nm; type: biochemical; conditions: read-out: I50
T1 construct: homodimer; 250 residues per monomer

[2] = target: T2, HsTIM (human triosephosphate isomerase) (Homo sapiens, UniProt P60174); assay: as above; type: biochemical; conditions: 5 µg/mL enzyme preincubated with compound 2 h at 36 °C, 10% DMSO, 10 mM EDTA, pH 7.4; assay 1 mM GAP, 25 °C
T2 construct: gene TPI1
T2 sequence (P60174 2-249): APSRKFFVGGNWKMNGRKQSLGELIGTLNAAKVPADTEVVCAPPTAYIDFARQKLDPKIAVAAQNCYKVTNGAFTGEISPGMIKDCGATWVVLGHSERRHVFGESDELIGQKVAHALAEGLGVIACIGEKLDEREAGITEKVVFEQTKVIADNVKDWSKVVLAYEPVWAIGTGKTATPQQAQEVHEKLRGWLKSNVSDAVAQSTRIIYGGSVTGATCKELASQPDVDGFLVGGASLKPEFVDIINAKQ

T1 sequence (P04789 whole entry): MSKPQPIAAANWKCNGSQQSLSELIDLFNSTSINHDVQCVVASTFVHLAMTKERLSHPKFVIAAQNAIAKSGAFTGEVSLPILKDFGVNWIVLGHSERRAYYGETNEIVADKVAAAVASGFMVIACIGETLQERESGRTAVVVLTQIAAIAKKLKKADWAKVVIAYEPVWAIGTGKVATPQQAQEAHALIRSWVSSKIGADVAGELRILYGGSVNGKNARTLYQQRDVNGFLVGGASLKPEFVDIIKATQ

| SMILES | IC50 [1] [µM] | % inactivation at 100 μM [2] [%] |
| --- | --- | --- |
| CSc1nc2ccc(C(=O)N/N=C/c3ccc([N+](=O)[O-])o3)cc2[nH]1 [compound 3, (E)-2-(Methylthio)-N′-((5-nitrofuran-2-yl)methylene)-1H-benzimidazole-5-carbohydrazide] | 73 | – |
| COC(=O)Nc1nc2cc(Oc3ccc(Cl)c4ccccc34)ccc2[nH]1 [compound 2, Methyl(5-((4-chloronaphthalen-1-yl)oxy)-1H-benzimidazol-2-yl)carbamate] | 82 | 23 |
| COC(=O)Nc1nc2cc(Oc3cccc4ccccc34)ccc2[nH]1 [compound 1, Methyl(5-(naphthalen-1-yloxy)-1H-benzimidazol-2-yl)carbamate] | 84 | 12 |

Reference: article PMC6149853, “Species-Specific Inactivation of Triosephosphate Isomerase from Trypanosoma brucei: Kinetic and Molecular Dynamics Studies” (Molecules : A Journal of Synthetic Chemistry and Natural …, 2017)
